According to patent US10456407B2, “Combination therapy for treating cancer” (Epizyme, Inc., priority 2015, dated 2019):

Tested on: WSU-DLCL2 cells
Experiment: RT2 Glucocorticoid signaling PCR array, WSU-DLCL2 (WSU) cell line (Table 4c)
Format: cell-based

## C[C@]12C=CC(=O)C=C1CC[C@@H]1[C@@H]2[C@@H](O)C[C@@]2(C)[C@H]1CC[C@]2(O)C(=O)CO [Prednisolone, prednisolone]
Gene ACTB
  Ct Values, ACTB: 14.572
  ΔCT (B2M), ACTB: −4.573
Gene ADARB1
  Ct Values, ADARB1: 26.108
  ΔCT (B2M), ADARB1: 6.963
Gene ADARB1, compared to DMSO
  ΔΔCT, ADARB1: 0.097
Gene AFF1
  Ct Values, AFF1: 27.334
  ΔCT (B2M), AFF1: 8.189
Gene AFF1, compared to DMSO
  ΔΔCT, AFF1: −0.464
Gene AK2
  Ct Values, AK2: 20.433
  ΔCT (B2M), AK2: 1.288
Gene AK2, compared to DMSO
  ΔΔCT, AK2: 0.094
Gene AMPD3
  Ct Values, AMPD3: 27.943
  ΔCT (B2M), AMPD3: 8.798
Gene AMPD3, compared to DMSO
  ΔΔCT, AMPD3: −0.219
Gene ANGPTL4
  Ct Values, ANGPTL4: 30.810
  ΔCT (B2M), ANGPTL4: 11.665
Gene ANGPTL4, compared to DMSO
  ΔΔCT, ANGPTL4: −0.329
Gene ANXA4
  Ct Values, ANXA4: 27.406
  ΔCT (B2M), ANXA4: 8.261
Gene ANXA4, compared to DMSO
  ΔΔCT, ANXA4: −0.025
Gene AQP1
  Ct Values, AQP1: 33.595
  ΔCT (B2M), AQP1: 14.450
Gene ARID68
  Ct Values, ARID68: 26.721
  ΔCT (B2M), ARID68: 7.576
Gene ARID68, compared to DMSO
  ΔΔCT, ARID68: 0.722
Gene ASPH
  Ct Values, ASPH: 21.939
  ΔCT (B2M), ASPH: 2.794
Gene ASPH, compared to DMSO
  ΔΔCT, ASPH: −0.041
Gene ATF4
  Ct Values, ATF4: 19.659
  ΔCT (B2M), ATF4: 0.514
Gene ATF4, compared to DMSO
  ΔΔCT, ATF4: 0.090
Gene B2M (normaliser)
  Ct Values, B2M: 19.145
  ΔCT (B2M), B2M: 0.000
Gene BCL6
  Ct Values, BCL6: 20.898
  ΔCT (B2M), BCL6: 1.753
Gene BCL6, compared to DMSO
  ΔΔCT, BCL6: 0.249
Gene CEBPA
  Ct Values, CEBPA: 27.838
  ΔCT (B2M), CEBPA: 8.693
Gene CEBPA, compared to DMSO
  ΔΔCT, CEBPA: −0.295
Gene CEBPB
  Ct Values, CEBPB: 25.775
  ΔCT (B2M), CEBPB: 6.630
Gene CEBPB, compared to DMSO
  ΔΔCT, CEBPB: 0.814
Gene COL4A2
  Ct Values, COL4A2: 34.328
  ΔCT (B2M), COL4A2: 15.183
Gene CREB1
  Ct Values, CREB1: 22.732
  ΔCT (B2M), CREB1: 3.587
Gene CREB1, compared to DMSO
  ΔΔCT, CREB1: −0.133
Gene CREB3
  Ct Values, CREB3: 24.551
  ΔCT (B2M), CREB3: 5.406
Gene CREB3, compared to DMSO
  ΔΔCT, CREB3: −0.453
Gene CREB3L4
  Ct Values, CREB3L4: 24.437
  ΔCT (B2M), CREB3L4: 5.292
Gene CREB3L4, compared to DMSO
  ΔΔCT, CREB3L4: −0.330
Gene CYB561
  Ct Values, CYB561: 32.971
  ΔCT (B2M), CYB561: 13.826
Gene CYB561, compared to DMSO
  ΔΔCT, CYB561: −3.598
Gene DDIT4
  Ct Values, DDIT4: 22.252
  ΔCT (B2M), DDIT4: 3.107
Gene DDIT4, compared to DMSO
  ΔΔCT, DDIT4: −1.672
Gene DUSP1
  Ct Values, DUSP1: 25.828
  ΔCT (B2M), DUSP1: 6.683
Gene DUSP1, compared to DMSO
  ΔΔCT, DUSP1: 0.454
Gene EDN1
  Ct Values, EDN1: 30.019
  ΔCT (B2M), EDN1: 11.674
Gene EHD3
  Ct Values, EHD3: 27.724
  ΔCT (B2M), EHD3: 8.579
Gene EHD3, compared to DMSO
  ΔΔCT, EHD3: −1.645
Gene FK8PS
  Ct Values, FK8PS: 21.321
  ΔCT (B2M), FK8PS: 2.176
Gene FK8PS, compared to DMSO
  ΔΔCT, FK8PS: −1.247
Gene FOSL2
  Ct Values, FOSL2: 33.647
  ΔCT (B2M), FOSL2: 14.502
Gene FOSL2, compared to DMSO
  ΔΔCT, FOSL2: 2.843
Gene GAPDH
  Ct Values, GAPDH: 16.349
  ΔCT (B2M), GAPDH: −2.796
Gene GDPD1
  Ct Values, GDPD1: 28.235
  ΔCT (B2M), GDPD1: 9.090
Gene GDPD1, compared to DMSO
  ΔΔCT, GDPD1: 0.169
Gene GHRHR
  Ct Values, GHRHR: 37.739
  ΔCT (B2M), GHRHR: 18.644
Gene GHRHR, compared to DMSO
  ΔΔCT, GHRHR: 3.458
Gene GLUL
  Ct Values, GLUL: 31.475
  ΔCT (B2M), GLUL: 12.330
Gene GOT1
  Ct Values, GOT1: 22.841
  ΔCT (B2M), GOT1: 3.696
Gene GOT1, compared to DMSO
  ΔΔCT, GOT1: 0.262
Gene H6PD
  Ct Values, H6PD: 26.197
  ΔCT (B2M), H6PD: 7.052
Gene H6PD, compared to DMSO
  ΔΔCT, H6PD: 0.142
Gene HNRPLL
  Ct Values, HNRPLL: 24.750
  ΔCT (B2M), HNRPLL: 5.605
Gene HNRPLL, compared to DMSO
  ΔΔCT, HNRPLL: 1.026
Gene HPRT1
  Ct Values, HPRT1: 21.361
  ΔCT (B2M), HPRT1: 2.216
Gene IL1RN
  Ct Values, IL1RN: 33.599
  ΔCT (B2M), IL1RN: 14.454
Gene IL1RN, compared to DMSO
  ΔΔCT, IL1RN: 1.298
Gene IL10
  Ct Values, IL10: 34.306
  ΔCT (B2M), IL10: 15.161
Gene KLF9
  Ct Values, KLF9: 30.105
  ΔCT (B2M), KLF9: 10.960
Gene KLF9, compared to DMSO
  ΔΔCT, KLF9: −0.431
Gene KLF13
  Ct Values, KLF13: 23.792
  ΔCT (B2M), KLF13: 4.647
Gene KLF13, compared to DMSO
  ΔΔCT, KLF13: −0.442
Gene LOX
  Ct Values, LOX: 34.511
  ΔCT (B2M), LOX: 15.366
Gene LOX, compared to DMSO
  ΔΔCT, LOX: 0.550
Gene MERTK
  Ct Values, MERTK: 32.524
